The record followed here is ChEMBL document CHEMBL1136688, “Synthesis and SAR of aminoalkoxy-biaryl-4-carboxamides: novel and selective histamine H3 receptor antagonists” (Bioorg Med Chem Lett, 2003).

The nature of data set [1]: The peak blood concentration after 5 hr administration (2.5 mg/kg) in dog was determined. Type of data set: ADME, organism-based, Canis lupus familiaris. Further details: dose 2.5 mg/kg.
For data set [2], the target named is T1, Muscarinic acetylcholine receptor M1 (Homo sapiens, UniProt P11229).
T1 sequence (P11229 whole entry): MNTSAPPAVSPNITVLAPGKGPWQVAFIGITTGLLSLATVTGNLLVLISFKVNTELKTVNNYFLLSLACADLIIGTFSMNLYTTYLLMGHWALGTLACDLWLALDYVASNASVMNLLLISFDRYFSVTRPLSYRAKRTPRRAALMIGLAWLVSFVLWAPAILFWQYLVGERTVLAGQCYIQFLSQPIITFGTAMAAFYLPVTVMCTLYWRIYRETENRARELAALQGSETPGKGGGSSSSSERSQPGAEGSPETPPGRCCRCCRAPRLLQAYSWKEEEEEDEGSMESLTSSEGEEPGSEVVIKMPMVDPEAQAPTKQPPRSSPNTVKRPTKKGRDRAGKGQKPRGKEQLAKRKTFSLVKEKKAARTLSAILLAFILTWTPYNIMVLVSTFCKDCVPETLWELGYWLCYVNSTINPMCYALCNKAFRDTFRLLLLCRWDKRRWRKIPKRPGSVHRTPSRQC
Kind of data set: Binding affinity towards human muscarinic M1 receptor.

Data set [3] deals with Muscarinic acetylcholine receptor M3 (Homo sapiens, UniProt P20309). The data set can be described thus: Binding affinity towards human muscarinic M3 receptor.
Chain of Muscarinic acetylcholine receptor M3 (P20309 whole entry): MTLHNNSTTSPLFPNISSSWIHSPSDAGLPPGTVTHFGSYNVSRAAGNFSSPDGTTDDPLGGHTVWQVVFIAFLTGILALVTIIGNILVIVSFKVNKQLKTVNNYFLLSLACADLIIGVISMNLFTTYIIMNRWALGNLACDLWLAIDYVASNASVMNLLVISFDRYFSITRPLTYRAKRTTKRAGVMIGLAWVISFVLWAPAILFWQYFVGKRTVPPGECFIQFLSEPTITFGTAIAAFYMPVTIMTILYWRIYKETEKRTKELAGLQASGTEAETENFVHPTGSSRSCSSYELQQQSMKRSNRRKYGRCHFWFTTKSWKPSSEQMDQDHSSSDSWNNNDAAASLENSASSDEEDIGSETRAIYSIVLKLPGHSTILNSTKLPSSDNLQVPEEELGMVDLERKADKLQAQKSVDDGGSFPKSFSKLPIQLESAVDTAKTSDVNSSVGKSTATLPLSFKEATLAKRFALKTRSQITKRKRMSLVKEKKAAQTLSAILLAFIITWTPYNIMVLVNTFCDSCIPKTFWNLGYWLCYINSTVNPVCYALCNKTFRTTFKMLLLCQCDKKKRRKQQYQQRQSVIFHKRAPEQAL
Data set [4] deals with Sodium-dependent serotonin transporter (Homo sapiens, UniProt P31645). The data set can be described thus: Binding affinity towards human UPTK-Serotonin transporter.
Chain of Sodium-dependent serotonin transporter (P31645 whole entry): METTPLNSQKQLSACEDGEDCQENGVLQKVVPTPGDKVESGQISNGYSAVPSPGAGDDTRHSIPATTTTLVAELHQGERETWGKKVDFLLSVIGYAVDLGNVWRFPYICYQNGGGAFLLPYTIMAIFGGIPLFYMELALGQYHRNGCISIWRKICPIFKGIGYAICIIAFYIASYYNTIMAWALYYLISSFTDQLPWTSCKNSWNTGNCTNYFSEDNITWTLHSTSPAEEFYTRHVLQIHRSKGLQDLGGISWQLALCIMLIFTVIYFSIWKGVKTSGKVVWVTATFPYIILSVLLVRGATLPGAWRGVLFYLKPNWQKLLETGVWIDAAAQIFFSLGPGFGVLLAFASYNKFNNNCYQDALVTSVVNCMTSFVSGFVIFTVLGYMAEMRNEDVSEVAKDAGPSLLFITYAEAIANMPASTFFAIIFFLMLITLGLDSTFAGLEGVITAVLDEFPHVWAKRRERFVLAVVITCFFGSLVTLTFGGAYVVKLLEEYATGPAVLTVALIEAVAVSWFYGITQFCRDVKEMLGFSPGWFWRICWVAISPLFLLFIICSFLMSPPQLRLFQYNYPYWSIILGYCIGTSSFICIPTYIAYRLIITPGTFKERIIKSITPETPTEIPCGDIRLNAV
The target of data set [5] is T2, Muscarinic acetylcholine receptor M2 (Homo sapiens, UniProt P08172).
T2 sequence (P08172 whole entry): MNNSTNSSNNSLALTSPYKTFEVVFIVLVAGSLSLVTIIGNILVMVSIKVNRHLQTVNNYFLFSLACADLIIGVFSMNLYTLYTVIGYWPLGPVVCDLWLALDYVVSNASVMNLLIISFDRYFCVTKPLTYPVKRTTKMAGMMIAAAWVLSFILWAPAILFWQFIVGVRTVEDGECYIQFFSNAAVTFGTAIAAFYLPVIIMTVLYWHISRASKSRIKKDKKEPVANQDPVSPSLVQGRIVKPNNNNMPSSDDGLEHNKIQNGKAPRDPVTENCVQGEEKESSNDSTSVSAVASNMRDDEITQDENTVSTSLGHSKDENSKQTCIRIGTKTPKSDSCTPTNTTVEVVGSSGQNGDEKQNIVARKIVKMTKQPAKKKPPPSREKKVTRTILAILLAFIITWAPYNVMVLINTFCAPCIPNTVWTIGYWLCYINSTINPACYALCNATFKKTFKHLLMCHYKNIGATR
Kind of data set: Binding affinity towards human muscarinic M2 receptor.

The species entered for a further data set is Cavia porcellus. The data set can be described thus: Compound was tested for blocked alpha-methylhistamine-induced inhibition of electrical field-stimulation induced twitch response in guinea pig ileum. In kind it is functional. Particulars: read-out: pA2 (converted).
Data set [6] can be described thus: Bioavailability after oral administration (2.5 mg/kg) in dog was determined. Conditions: in vivo. Type of data set: ADME, organism-based, Canis lupus familiaris.
For the next data set, the target named is Histamine H2 receptor (Homo sapiens, UniProt P25021). Kind of data set: Binding affinity towards human histaminergic (H2) receptor.
Chain of Histamine H2 receptor (P25021 whole entry): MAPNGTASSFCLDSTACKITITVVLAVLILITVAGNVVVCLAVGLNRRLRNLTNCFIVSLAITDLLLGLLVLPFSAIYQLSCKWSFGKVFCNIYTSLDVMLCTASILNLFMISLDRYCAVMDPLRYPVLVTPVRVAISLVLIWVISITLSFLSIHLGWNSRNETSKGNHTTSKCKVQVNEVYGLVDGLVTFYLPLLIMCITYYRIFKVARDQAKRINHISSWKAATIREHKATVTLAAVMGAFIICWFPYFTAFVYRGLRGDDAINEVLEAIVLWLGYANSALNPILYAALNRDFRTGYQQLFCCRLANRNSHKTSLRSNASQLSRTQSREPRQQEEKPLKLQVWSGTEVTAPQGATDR
Data set [7] concerns the target T3, Alpha-2C adrenergic receptor (Homo sapiens, UniProt P18825).
T3 sequence (P18825 whole entry): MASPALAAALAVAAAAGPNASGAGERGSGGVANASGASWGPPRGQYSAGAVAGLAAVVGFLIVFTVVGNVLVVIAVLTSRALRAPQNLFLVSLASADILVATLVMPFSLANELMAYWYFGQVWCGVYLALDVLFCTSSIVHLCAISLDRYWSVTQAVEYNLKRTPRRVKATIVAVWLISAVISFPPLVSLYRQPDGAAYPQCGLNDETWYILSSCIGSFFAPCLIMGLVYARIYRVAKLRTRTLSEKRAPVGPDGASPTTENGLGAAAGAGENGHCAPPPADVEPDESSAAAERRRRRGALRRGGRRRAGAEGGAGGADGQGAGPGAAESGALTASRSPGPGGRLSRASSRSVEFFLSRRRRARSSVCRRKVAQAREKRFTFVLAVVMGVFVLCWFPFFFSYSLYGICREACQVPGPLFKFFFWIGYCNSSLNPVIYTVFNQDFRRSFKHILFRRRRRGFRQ
The data set can be described thus: Binding affinity towards human Alpha-2C adrenergic receptor.

In a further data set the target is Histamine H1 receptor (Homo sapiens, UniProt P35367). Kind of data set: Binding affinity towards human histaminergic (H1) receptor.
Chain of Histamine H1 receptor (P35367 whole entry): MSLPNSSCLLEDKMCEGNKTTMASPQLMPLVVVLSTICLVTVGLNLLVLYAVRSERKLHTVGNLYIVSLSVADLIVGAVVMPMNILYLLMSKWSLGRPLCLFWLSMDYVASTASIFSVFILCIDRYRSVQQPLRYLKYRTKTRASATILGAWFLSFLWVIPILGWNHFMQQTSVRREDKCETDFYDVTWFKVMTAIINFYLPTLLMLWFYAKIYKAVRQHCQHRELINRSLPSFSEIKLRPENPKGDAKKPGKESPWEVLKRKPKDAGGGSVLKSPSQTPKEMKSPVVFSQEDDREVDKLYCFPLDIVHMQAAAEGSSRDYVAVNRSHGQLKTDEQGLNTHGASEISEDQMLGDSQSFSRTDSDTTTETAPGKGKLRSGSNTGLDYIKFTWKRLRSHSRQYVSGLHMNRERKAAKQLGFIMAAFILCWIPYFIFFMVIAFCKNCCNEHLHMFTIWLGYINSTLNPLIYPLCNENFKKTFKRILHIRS
A short description of data set [8]: Bioavailability after oral administration (2.5 mg/kg) in monkey was determined. Type of data set: ADME, organism-based. Conditions: cercopithecidae, in vivo.
Data set [9] in a line: Half life period after oral administration (2.5 mg/kg) in dog was determined. Conditions: in vivo. Type of data set: ADME, organism-based, Canis lupus familiaris.
The target of data set [10] is Histamine H3 receptor (Rattus norvegicus) (UniProt Q9QYN8). Conditions: Brain.
Chain of Histamine H3 receptor (Rattus norvegicus) (Q9QYN8 whole entry): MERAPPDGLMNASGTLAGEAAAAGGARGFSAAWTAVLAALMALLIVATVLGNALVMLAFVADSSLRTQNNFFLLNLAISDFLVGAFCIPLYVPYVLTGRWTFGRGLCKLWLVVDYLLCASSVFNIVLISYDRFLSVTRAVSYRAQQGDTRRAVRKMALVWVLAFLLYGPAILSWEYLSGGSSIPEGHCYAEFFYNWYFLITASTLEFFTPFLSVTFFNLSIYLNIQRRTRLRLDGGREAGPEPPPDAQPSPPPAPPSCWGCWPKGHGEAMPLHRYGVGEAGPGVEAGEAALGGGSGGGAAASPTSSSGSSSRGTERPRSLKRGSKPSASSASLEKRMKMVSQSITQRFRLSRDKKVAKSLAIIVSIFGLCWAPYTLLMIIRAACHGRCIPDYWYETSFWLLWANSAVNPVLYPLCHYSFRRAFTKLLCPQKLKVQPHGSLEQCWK
In data set [11] the target is T4, Histamine H3 receptor (Homo sapiens, UniProt Q9Y5N1). The data set can be described thus: Affinity to bind with human cloned H3 receptor using radioligand binding assay. Particulars: read-out: pA2 (converted).
T4 sequence (Q9Y5N1 whole entry): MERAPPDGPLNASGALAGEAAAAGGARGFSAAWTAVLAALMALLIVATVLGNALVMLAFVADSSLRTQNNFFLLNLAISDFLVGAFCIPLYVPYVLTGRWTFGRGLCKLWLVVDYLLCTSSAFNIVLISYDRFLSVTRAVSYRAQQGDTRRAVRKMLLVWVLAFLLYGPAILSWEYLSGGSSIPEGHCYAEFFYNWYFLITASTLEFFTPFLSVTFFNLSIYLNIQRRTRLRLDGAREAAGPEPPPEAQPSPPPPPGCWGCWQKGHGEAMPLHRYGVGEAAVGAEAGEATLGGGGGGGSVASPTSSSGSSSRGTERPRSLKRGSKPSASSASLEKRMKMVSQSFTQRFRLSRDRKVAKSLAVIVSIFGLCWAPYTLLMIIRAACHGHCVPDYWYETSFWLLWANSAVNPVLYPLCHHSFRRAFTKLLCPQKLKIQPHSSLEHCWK
The target in the next data set is T5, D(4) dopamine receptor (Homo sapiens, UniProt P21917).
T5 sequence (P21917 whole entry): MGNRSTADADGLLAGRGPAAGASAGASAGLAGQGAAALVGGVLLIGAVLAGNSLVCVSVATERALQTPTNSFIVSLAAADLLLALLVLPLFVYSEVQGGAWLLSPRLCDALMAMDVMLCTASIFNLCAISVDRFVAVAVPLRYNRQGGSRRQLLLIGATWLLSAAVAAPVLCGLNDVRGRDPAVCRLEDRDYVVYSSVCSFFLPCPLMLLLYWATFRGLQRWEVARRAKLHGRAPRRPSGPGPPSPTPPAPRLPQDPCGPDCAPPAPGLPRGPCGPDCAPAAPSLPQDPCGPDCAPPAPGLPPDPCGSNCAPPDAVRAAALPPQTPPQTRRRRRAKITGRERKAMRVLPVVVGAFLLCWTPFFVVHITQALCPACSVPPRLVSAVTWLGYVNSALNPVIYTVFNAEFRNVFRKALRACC
Kind of data set: Binding affinity towards human D4.2 receptor.

The next data set has as its target Histamine H4 receptor (Homo sapiens, UniProt Q9H3N8). The data set can be described thus: Binding affinity towards human histaminergic (H4) receptor.
The nature of data set [12]: Plasma clearance after oral administration (2.5 mg/kg) in monkey was determined. Conditions: cercopithecidae, read-out: Clp (converted). In kind it is ADME, organism-based.
Data set [13] in a line: Half life period after oral administration (2.5 mg/kg) in monkey was determined. In kind it is ADME, organism-based. Particulars: cercopithecidae, in vivo.
For data set [14], the target named is T4, Histamine H3 receptor. Kind of data set: Binding affinity for human recombinant H3 receptor.
The nature of data set [15]: The peak plasma concentration after 5 hr administration (2.5 mg/kg) in monkey was determined. In kind it is ADME, organism-based. Further details: dose 2.5 mg/kg. Particulars: cercopithecidae.
In data set [16] the target is Sodium-dependent noradrenaline transporter (Homo sapiens, UniProt P23975). The data set can be described thus: Binding affinity towards human UPTK-NE transporter.
Chain of Sodium-dependent noradrenaline transporter (P23975 whole entry): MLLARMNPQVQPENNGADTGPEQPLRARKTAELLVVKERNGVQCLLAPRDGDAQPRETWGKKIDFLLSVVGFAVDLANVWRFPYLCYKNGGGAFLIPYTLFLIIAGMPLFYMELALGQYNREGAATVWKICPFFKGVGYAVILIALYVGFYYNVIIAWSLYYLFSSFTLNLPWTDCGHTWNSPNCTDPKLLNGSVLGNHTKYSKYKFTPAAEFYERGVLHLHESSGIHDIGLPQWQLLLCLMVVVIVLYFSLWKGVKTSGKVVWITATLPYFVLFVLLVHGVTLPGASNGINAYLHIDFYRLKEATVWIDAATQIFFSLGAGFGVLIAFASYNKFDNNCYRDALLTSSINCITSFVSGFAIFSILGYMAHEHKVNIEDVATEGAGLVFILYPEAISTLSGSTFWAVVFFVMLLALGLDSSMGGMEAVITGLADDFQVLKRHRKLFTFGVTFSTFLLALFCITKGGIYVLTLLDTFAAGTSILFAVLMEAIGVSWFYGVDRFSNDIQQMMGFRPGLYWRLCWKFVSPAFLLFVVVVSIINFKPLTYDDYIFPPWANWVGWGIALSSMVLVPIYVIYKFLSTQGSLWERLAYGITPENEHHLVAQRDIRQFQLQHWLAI
The nature of data set [17]: Plasma clearance after oral administration (2.5 mg/kg) in dog was determined. Particulars: read-out: Clp (converted). Type of data set: ADME, organism-based, Canis lupus familiaris.
Data set [18] addresses Sodium-dependent dopamine transporter (Homo sapiens, UniProt Q01959). Kind of data set: Binding affinity towards human UPTK-DA transporter.
Data set [19] in a line: Volume distribution after oral administration (2.5 mg/kg) in monkey was determined. Type of data set: ADME, organism-based. Particulars: cercopithecidae, in vivo.

Chain of Sodium-dependent dopamine transporter (Q01959 whole entry): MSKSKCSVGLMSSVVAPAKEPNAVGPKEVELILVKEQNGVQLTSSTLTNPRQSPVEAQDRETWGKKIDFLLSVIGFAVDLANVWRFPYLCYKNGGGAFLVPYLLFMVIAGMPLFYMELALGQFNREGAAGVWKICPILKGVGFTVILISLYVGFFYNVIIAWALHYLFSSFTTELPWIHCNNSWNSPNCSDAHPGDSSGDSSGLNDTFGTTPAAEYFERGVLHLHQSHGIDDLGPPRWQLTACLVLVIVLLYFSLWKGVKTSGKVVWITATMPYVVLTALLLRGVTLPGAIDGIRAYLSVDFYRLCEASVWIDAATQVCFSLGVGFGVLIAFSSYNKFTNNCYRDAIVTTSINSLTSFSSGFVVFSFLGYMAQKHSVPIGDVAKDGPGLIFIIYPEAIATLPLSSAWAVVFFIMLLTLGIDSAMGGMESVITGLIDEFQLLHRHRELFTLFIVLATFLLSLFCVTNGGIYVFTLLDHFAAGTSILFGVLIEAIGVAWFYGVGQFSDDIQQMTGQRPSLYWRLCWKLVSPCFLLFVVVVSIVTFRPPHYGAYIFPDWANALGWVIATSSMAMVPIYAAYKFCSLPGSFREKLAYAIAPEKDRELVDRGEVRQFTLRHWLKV
Chain of Histamine H4 receptor (Q9H3N8 whole entry): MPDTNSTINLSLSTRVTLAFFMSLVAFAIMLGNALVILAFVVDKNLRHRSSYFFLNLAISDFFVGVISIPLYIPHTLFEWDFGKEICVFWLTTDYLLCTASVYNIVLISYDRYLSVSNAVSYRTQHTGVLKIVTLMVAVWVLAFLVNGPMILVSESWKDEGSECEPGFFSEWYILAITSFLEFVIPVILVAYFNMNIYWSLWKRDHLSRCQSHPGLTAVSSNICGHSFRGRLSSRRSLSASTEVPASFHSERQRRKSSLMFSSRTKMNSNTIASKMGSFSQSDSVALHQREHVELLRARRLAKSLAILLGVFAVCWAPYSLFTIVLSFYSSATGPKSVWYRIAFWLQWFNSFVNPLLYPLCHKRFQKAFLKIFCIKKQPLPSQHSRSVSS

As usually defined, the Cmax is the maximum level reached in the sampled fluid or tissue. One may read the Ki as the equilibrium dissociation constant of an inhibitor or competing ligand from its target. The term bioavailability denotes the share of a dose that reaches the circulation, judged against a reference dose that is usually intravenous. Usually half-life stands for the time needed for the level to fall by half in the phase considered. Usually pKb stands for the Kb on a negative log10 scale, so that one unit is a factor of ten. On to `C[C@H]1CC[C@H](C)N1CCCOc1ccc(-c2ccc(C(=O)N3CCOCC3)cc2)cc1` [A-349,821], for which the results for the Cmax in data set [1] and in data set [15] were 310 ng/mL and 170 ng/mL, respectively. Besides, the Ki in data set [2] was 1620 nM; in [3], 1660 nM; in data set [4], 3550 nM; in data set [5], 933 nM; on Histamine H2 receptor, 10000 nM; in data set [7], 1620 nM. Besides, the Ki was 2340 nM at Histamine H1 receptor; 9770 nM on D(4) dopamine receptor; 10000 nM at Histamine H4 receptor; 0.49 nM at Histamine H3 receptor [14]; 9770 nM in data set [16]; 4900 nM in data set [18]. Moreover, the Kb was 0.339 nM in the data set filed under Cavia porcellus and 2.14 nM at Histamine H3 receptor [11]. Also, the bioavailability in [6] stood at 33%; in [8] it was 78%. Also, the half-life in data set [9] was 2.6 h; in data set [13], 5.3 h. The compound also yielded a pKb in data set [10] of 9.23. The figures for the CL/F in [12] and in [17] were 16.7 mL/min/kg and 10 mL/min/kg, respectively. This compound showed a Vbeta in data set [19] of 7.5 L/kg.
